The test system of one experiment is intestinal crypts. Nature of the experiment: Proliferation-related gene expression in laser capture microdissected intestinal crypts of mice treated with NVP-AEW541 for 3 weeks (real-time PCR). It counts as in vivo. The note with it: mice treated with NVP-AEW541 50 mg/kg oral gavage for 3 weeks; LOI(−) normalized to 1.0. The method, then:
Qunatitative real-time PCR was performed on laser capture microdissected intestinal crypts from 12 LOI(+) and 9 LOI(−) mice. Expression was normalized to β-actin, and the expression level in LOI(+) samples (gray) relative to LOI(−) samples (black) is shown. The bars indicate standard error. […] Analysis was by quantitative real-time PCR of laser capture microdissected crypts from four LOI(+) mice and four LOI(−) mice treated with NVP-AEW541 for 3 weeks. LOI(+) (gray bars), LOI(−) mice (black bars normalized to 1.0).
For validation, LCM was performed on an additional 12 LOI(+) and 9 LOI(−) mice, isolating approximately 800 crypts yielding more than 300 ng of total RNA from each. RNA samples were reverse-transcribed using SUPERSCRIPT II (Invitrogen), and quantified using SYBR Green PCR Core Reagents and an ABI Prism 7700 Sequence Detection System (Applied Biosystems), and normalized to β-actin.
Four LOI(+) and four LOI(−) mice were also treated with NVP-AEW541 to inhibit IGF2 signaling, at a dose of 50 mg/kg by oral gavage daily for 3 weeks (twice daily except daily on weekends). NVP-AEW541 is an ATP-competitive inhibitor of IGF-IR which blocks signaling at the IGF1 receptor, which mediates IGF2 signaling (Garcia-Echeverria et al., Cancer Cell (2004) 5:231-239). […] Thus, LOI-induced changes in proliferation-related gene expression were mediated, at least in part, through IGF2 signaling itself.

The next experiment has as its target IGF1R (Homo sapiens, UniProt P08069). The note with it: cited from earlier work.
For experiment [1], the system named is aberrant crypt foci (ACF). Nature of the experiment: Azoxymethane (AOM)-induced aberrant crypt foci (ACF) in LOI(+) and LOI(−) mice, NVP-AEW541 by oral gavage. The note with it: for AOM-induced ACF formation: AOM plus NVP-AEW541 50 mg/kg oral gavage for 6 weeks; for decrease in ACFs normalized to colon surface area: AOM, treated with the inhibitor. The format is in vivo. The method, then: ACF formation in the colon was induced by AOM intraperitoneal injection, and treatment with NVP-AEW541 was by gastric gavage. Each ACF was formed of 1-4 aberrant crypts, and the number of ACF (# of ACF), the number of total aberrant crypts (# of AC), and the average number of aberrant crypts per ACF were measured.
(A) ACF formation in the colon was induced by AOM i.p. injection, and treatment with NVP-AEW541 was by gastric […]. Each ACF was formed of […] aberrant crypts, and the number of ACF (# of ACF), the number of total aberrant crypts (# of AC), and the average number of aberrant crypts per ACF were measured. LOI(+) AOM mice (dark gray bars), LOI(−) AOM mice (black bars), LOI(+) AOM NVP mice (light gray bars), LOI(−) AOM NVP mice (gray bars). (B) The number of ACF and the number of total aberrant crypts (AC) were corrected by colon surface area (cm^2).
7 week old LOI(+) and LOI(−) littermate controls were treated with AOM at 10 mg/kg body weight intraperitoneally once per week for three weeks, and euthanized 5 weeks after the first dose of AOM. The entire colon was resected from mice after laparotomy, flushed with PBS, filled with 10% buffered formalin (Sigma) for one minute, opened longitudinally, fixed flat between filter paper in formalin at 4° C. overnight, rinsed with PBS, and stained with 0.2% methylene blue in saline. The number of ACF per colon and the number of aberrant crypts per ACF were scored under a light microscopy as previously described Bird, Cancer Lett (1987) 37:147-151). NVP-AEW541 (50 mg/kg) was administered by oral gavage, beginning 1 week before AOM treatment, and NVP-AEW541 was administered 7 days/week, twice a day for 5 weekdays and once a day for 2 weekend days, for 6 weeks until sacrifice.
Because of known strain variation in progression of these lesions, littermate controls were treated with and without LOI, in which the dams were heterozygous for a deletion of the H19 differentially methylated region (DMR); inheritance of a maternal allele lacking the DMR leads to activation of the normally silent allele of Igf2 [LOI(+)], while inheritance of a wild type maternal allele leads to normal imprinting [LOI(−)]. Eight LOI(+) and 14 LOI(−) mice were given AOM intraperitoneally weekly for 3 weeks, sacrificed at 5 weeks after the first dose, and ACF were scored by the method of Bird (1987). Histologic examination of colons from AOM-treated mice confirmed the presence of ACF, with hyperproliferative features including increased mitosis, crypt enlargement and crypt disarray (FIG. 12). […] An additional intriguing finding in AOM-treated LOI(+) mice was cystically dilated crypts lined by enlarged cells with atypical nuclei and that contained necrotic debris, that were reminiscent of sessile serrated adenomas (SSAs) seen in the human colon (FIG. 12). SSAs also show crypt dilatation in association with cytologic atypia and are currently of immense interest for their recently recognized association with colorectal cancer (Snover et al., Am J Clin Pathol (2005) 124:380-391). It will thus be of interest to determine whether SSAs are associated with LOI in the human population.
An additional 9 LOI(+) mice and 9 LOI(−) control littermates were similarly exposed to AOM, adding treatment with NVP-AEW541, an IGF1R inhibitor, at a dose of 50 mg/kg by oral gavage daily for 6 weeks (twice daily except daily on weekends). […] Thus, LOI of lgf2 increases the sensitivity to AOM through an IGF1R-dependent mechanism.
Eight LOI(+) and 14 LOI(−) mice were given AOM intraperitoneally weekly for 3 weeks, sacrificed at 5 weeks after the first dose, and ACFs were scored as described (Bird (1987)). Histologic examination of colons from AOM-treated mice confirmed the presence of ACFs, with hyperproliferative features including increased mitosis, crypt enlargement and crypt disarray (FIG. 14A, B). […]

The next experiment concerns the target T1, IGF1 receptor (Mus musculus, UniProt Q60751).
T1 construct: endogenous in cells; host or cells: NIH 3T3 cells
The experiment can be described thus: Western blot of IGF2 signaling at the IGF1 receptor in NIH 3T3 cells with varying NVP-AEW541. It counts as cell-based. Particulars: varying concentrations of NVP-AEW541, with or without IGF2.

T1 sequence (Q60751 31-1373): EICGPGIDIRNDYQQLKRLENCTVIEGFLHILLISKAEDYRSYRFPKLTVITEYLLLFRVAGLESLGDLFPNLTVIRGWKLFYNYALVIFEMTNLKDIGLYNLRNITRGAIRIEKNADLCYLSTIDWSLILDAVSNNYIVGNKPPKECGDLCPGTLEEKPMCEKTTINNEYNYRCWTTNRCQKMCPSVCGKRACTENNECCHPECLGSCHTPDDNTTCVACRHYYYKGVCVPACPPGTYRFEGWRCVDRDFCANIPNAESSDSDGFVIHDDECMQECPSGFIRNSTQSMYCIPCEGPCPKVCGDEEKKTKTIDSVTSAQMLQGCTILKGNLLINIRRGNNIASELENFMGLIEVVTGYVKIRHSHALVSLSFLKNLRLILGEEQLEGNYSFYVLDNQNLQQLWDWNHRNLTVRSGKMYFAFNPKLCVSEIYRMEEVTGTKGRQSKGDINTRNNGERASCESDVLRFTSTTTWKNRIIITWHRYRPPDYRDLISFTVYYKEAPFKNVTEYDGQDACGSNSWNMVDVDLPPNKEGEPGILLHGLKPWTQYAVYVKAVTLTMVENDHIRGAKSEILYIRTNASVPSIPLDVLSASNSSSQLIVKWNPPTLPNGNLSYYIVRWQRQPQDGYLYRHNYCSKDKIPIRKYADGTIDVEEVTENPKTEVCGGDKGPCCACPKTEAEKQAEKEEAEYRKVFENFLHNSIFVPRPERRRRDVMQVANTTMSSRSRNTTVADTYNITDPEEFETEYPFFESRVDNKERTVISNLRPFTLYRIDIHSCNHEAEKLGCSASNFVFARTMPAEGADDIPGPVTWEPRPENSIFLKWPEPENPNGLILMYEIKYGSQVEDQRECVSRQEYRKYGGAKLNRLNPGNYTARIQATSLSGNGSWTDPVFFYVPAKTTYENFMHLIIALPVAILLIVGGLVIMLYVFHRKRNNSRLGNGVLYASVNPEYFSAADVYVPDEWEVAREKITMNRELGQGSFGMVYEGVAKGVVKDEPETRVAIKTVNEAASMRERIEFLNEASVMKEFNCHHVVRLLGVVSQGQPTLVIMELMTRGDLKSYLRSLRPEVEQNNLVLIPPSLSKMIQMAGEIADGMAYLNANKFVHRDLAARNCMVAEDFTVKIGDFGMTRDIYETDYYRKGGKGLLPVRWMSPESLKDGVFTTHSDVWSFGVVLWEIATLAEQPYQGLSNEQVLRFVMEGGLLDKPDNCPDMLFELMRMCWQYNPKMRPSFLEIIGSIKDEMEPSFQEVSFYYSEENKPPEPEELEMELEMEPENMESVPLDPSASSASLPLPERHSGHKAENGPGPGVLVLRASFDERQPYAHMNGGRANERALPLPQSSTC
Sequence of IGF1R (P08069 31-1367, species assumed): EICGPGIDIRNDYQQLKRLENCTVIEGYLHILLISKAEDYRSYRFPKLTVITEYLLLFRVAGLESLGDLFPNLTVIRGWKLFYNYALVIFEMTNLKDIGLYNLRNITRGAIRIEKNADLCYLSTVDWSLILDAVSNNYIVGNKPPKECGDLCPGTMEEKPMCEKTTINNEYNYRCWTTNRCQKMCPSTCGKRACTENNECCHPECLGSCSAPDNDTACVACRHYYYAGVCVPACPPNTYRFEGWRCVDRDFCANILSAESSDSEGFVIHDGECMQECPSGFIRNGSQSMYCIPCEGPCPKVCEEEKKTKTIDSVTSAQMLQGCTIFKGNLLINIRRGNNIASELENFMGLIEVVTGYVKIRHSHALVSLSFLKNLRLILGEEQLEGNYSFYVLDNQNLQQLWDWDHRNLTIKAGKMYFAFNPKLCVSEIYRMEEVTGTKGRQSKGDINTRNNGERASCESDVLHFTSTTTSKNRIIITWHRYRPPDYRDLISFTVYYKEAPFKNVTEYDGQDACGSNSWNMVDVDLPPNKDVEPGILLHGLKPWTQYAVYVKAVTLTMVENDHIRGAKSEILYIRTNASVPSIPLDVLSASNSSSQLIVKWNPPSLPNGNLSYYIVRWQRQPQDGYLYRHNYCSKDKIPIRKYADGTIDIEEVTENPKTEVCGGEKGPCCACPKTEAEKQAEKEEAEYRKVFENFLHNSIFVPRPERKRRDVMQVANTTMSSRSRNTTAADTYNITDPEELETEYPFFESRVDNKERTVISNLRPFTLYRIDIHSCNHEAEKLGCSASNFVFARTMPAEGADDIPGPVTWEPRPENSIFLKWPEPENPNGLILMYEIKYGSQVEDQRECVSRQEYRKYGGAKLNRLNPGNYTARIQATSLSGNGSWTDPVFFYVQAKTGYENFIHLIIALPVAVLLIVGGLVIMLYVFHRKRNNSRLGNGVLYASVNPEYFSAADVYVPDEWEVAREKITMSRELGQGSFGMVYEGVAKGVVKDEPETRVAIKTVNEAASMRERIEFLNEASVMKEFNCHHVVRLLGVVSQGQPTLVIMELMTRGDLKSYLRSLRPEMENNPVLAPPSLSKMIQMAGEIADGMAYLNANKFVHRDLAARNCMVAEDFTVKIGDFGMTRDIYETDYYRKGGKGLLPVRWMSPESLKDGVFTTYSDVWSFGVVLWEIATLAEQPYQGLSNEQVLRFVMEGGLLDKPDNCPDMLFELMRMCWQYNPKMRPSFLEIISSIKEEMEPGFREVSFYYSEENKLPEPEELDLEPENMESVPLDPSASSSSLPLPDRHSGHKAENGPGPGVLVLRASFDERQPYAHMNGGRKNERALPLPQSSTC
Description for IGF1 receptor: NIH 3T3 cells were passaged every 3 days and maintained with low glucose DMEM plus 10% CBS in 5% CO2. The day prior to transfection cells were trypinsized and seeded into PLL-coated glass bottom Mattek dishes. Cells typically reached about 70% confluence the next day, when they were transfected with eGFP-Akt-PH plasmid with Fugene lipid following the manufacturer's instructions. 8 hours after transfection, cells were starved in 0.2% CBS in low glucose DMEM (with no antibiotics) for at least 12 hours. Western blots were performed with the antibodies shown, and varying concentrations of NVP-AEW541, with or without IGF2.

With `Nc1ncnc2c1c(-c1cccc(OCc3ccccc3)c1)cn2C1CC(CN2CCC2)C1` (stereo not drawn) [NVP-AEW541], in the experiment on intestinal crypts, the “Ccne1 expression in LOI(+) crypts relative to LOI(−) crypts” value was 0.57 fold, the “Cdc6 expression in LOI(+) crypts relative to LOI(−) crypts” value turned out to be 0.49 fold, the “Chaf1a expression in LOI(+) crypts relative to LOI(−) crypts” value came out at 0.42 fold and the “Lig1 expression in LOI(+) crypts relative to LOI(−) crypts” value came out at 0.42 fold. In the experiment with intestinal crypts, the “Mcm3 expression in LOI(+) crypts relative to LOI(−) crypts” value came out at 0.65 fold and the “Mcm5 expression in LOI(+) crypts relative to LOI(−) crypts” value amounted to 0.48 fold. On IGF1R, the “selectivity for IGF1R over the insulin receptor” value is “specifically inhibits IGF1R over the related insulin receptor”. In experiment [1] (LOI(+) mice), the “AOM-induced ACF formation” value was found to be 7.8±1.2 ACF per colon and the “decrease in ACFs normalized to colon surface area” value turned out to be 56%. In experiment [1] (LOI(−) mice), the “AOM-induced ACF formation” value stood at 11.3±1.6 ACF per colon and the “decrease in ACFs normalized to colon surface area” value is given as “no decrease”. For the same compound, the “inhibition of IGF2 signaling at the IGF1 receptor” value against IGF1 receptor was “blocks IGF2 at IGF1R”.

Values taken from US20110014204A1, “Cancer Chemoprevention Strategy Based on Loss of Imprinting of IGF2” (priority 2006, published 2011).
